{
  "source": "paper PMC9144282",
  "about": "(Viruses, 2022)",
  "key": {"[1]": {"tested_on": "human cell lines (HEp-2, L41, HT-29)", "experiment": "MTT cytotoxicity test, three human cell lines taken together", "type": "cell-based"}, "MS2 RNA": {"tested_on": "MS2 RNA", "experiment": "RNase activity by RT^2-PCR, isolated MS2 RNA", "type": "biochemical, bacteriophage MS2", "details": "0.1 mg/mL, 37 °C"}, "MS2 Phage": {"tested_on": "MS2 Phage", "experiment": "RNase activity by RT^2-PCR, whole MS2 phage", "type": "biochemical, bacteriophage MS2", "details": "0.1 mg/mL"}, "SARS-CoV-2 RNA": {"tested_on": "SARS-CoV-2 RNA", "type": "biochemical", "details": "0.1 mg/mL, 37 °C"}, "[2]": {"tested_on": "SARS-CoV-2 RNA from COVID-19 Patient Blood", "type": "biochemical"}, "[3]": {"experiment": "Stability on storage / in media", "type": "physicochemical", "details": "storage in water solution"}, "[4]": {"experiment": "Height of nanomaterials by AFM", "type": "physicochemical"}, "[5]": {"molecular_target": "SARS-CoV-2 recombinant antigen N (Severe acute respiratory syndrome coronavirus 2, UniProt P0DTC9)"}, "[6]": {"tested_on": "influenza A viral and cellular RNA", "parameters": "method as in earlier work", "details": "2 mM, 1 h at 37 °C; cited from earlier work"}, "[7]": {"parameters": "method as in earlier work", "details": "cited from earlier work"}, "L41 [8]": {"tested_on": "L41", "experiment": "MTT cytotoxicity test, L41 cells", "details": "concentration of the studied substance"}, "HT-29 [9]": {"tested_on": "HT-29", "experiment": "MTT cytotoxicity test, HT-29 cells", "details": "HT-29, MTT; concentration of the studied substance"}, "IFNγ": {"tested_on": "IFNγ", "experiment": "xMAP inflammation biomarkers in HEp-2 cells", "type": "cell-based, human", "details": "2 days posttreatment, concentrations below CC50"}, "TNFα": {"tested_on": "TNFα", "experiment": "xMAP inflammation biomarkers in HEp-2 cells", "type": "cell-based, human", "details": "2 days posttreatment, concentrations below CC50"}, "IL-1β": {"tested_on": "IL-1β", "experiment": "xMAP inflammation biomarkers in HEp-2 cells", "type": "cell-based, human", "details": "two days after addition"}, "IL-12(p70)": {"tested_on": "IL-12(p70)", "experiment": "xMAP inflammation biomarkers in HEp-2 cells", "type": "cell-based, human", "details": "2 days posttreatment, concentrations below CC50"}, "IL-2": {"tested_on": "IL-2", "experiment": "xMAP inflammation biomarkers in HEp-2 cells", "type": "cell-based, human", "details": "2 days posttreatment, concentrations below CC50"}, "IL-4": {"tested_on": "IL-4", "experiment": "xMAP inflammation biomarkers in HEp-2 cells", "type": "cell-based, human", "details": "2 days posttreatment, concentrations below CC50"}, "IL-5": {"tested_on": "IL-5", "experiment": "xMAP inflammation biomarkers in HEp-2 cells", "type": "cell-based, human", "details": "2 days posttreatment, concentrations below CC50"}, "IL-6": {"tested_on": "IL-6", "experiment": "xMAP inflammation biomarkers in HEp-2 cells", "type": "cell-based, human", "details": "2 days posttreatment, concentrations below CC50"}, "IL-7": {"tested_on": "IL-7", "experiment": "xMAP inflammation biomarkers in HEp-2 cells", "type": "cell-based, human", "details": "2 days posttreatment, concentrations below CC50"}, "IL-8": {"tested_on": "IL-8", "experiment": "xMAP inflammation biomarkers in HEp-2 cells", "type": "cell-based, human", "details": "2 days posttreatment, concentrations below CC50"}, "IL-10": {"tested_on": "IL-10", "experiment": "xMAP inflammation biomarkers in HEp-2 cells", "type": "cell-based, human", "details": "2 days posttreatment, concentrations below CC50"}, "IL-13": {"tested_on": "IL-13", "experiment": "xMAP inflammation biomarkers in HEp-2 cells", "type": "cell-based, human", "details": "2 days posttreatment, concentrations below CC50"}, "IL-17A": {"tested_on": "IL-17A", "experiment": "xMAP inflammation biomarkers in HEp-2 cells", "type": "cell-based, human", "details": "2 days posttreatment, concentrations below CC50"}, "G-CSF": {"tested_on": "G-CSF", "experiment": "xMAP inflammation biomarkers in HEp-2 cells", "type": "cell-based, human", "details": "2 days posttreatment, concentrations below CC50"}, "GM-CSF": {"tested_on": "GM-CSF", "experiment": "xMAP inflammation biomarkers in HEp-2 cells", "type": "cell-based, human", "details": "2 days posttreatment, concentrations below CC50"}, "MCP-1 (MCAP)": {"tested_on": "MCP-1 (MCAP)", "experiment": "xMAP inflammation biomarkers in HEp-2 cells", "type": "cell-based, human", "details": "2 days posttreatment, concentrations below CC50"}, "MIP-1β": {"tested_on": "MIP-1β", "experiment": "xMAP inflammation biomarkers in HEp-2 cells", "type": "cell-based, human", "details": "2 days posttreatment, concentrations below CC50"}, "L41 [10]": {"tested_on": "L41"}, "HT-29 [11]": {"tested_on": "HT-29"}, "[12]": {"molecular_target": "SARS-CoV-2 recombinant antigen S2 (Severe acute respiratory syndrome coronavirus 2, UniProt P0DTC2)"}, "HEp-2": {"tested_on": "HEp-2", "experiment": "MTT cytotoxicity test, HEp-2 cells", "details": "HEp-2, MTT; concentration of the studied substance"}},
  "note": "Read-outs that look alike come from different tables or passages of the source. Marks after values point to notes of the source that are not given here.",
  "data": [
    {"molecule": "Li^+[Ag^+2Cys2^−(OH^−)2(NH3)2] [Ag-2S]", "values": [
      {"measurement": "CC50", "setting": "[1]; over the human cell lines (Table 1)", "result": "5.3 to 21.2", "unit": "µg/mL"},
      {"measurement": "CC50", "setting": "[1]; range over the human cell lines, read-out: CC50", "result": "10 to 40", "unit": "µM"},
      {"measurement": "Time for complete cleavage of isolated MS2 RNA", "setting": "MS2 RNA", "result": 15, "unit": "min"},
      {"measurement": "ΔCt = Ct (sample) − Ct (control), MS2 Phage", "setting": "MS2 Phage; 37 °C, RT^2-PCR", "result": 7.5},
      {"measurement": "Incubation necessary for exhaustive hydrolysis of SARS-CoV-2 RNA", "setting": "SARS-CoV-2 RNA", "result": 1, "unit": "h"},
      {"measurement": "ΔCt = Ct (sample) − Ct (control), SARS-CoV-2 RNA from COVID-19 Patient Blood", "setting": "[2]", "result": 1.6},
      {"measurement": "Stability of structure and physico-chemical properties during storage", "setting": "[3]", "result": "up to 10 years"},
      {"measurement": "Particle height range (AFM)", "setting": "[4]; height distribution histograms, includes protein shell for Ag NCs-IgG", "result": "1–2 nm"},
      {"measurement": "Most probable height (AFM)", "setting": "[4]; height histograms", "result": "~ 1 nm"},
      {"measurement": "Effect on binding of antigen N with polyclonal antibodies (ELISA)", "setting": "[5]", "result": "did not significantly differ from the positive controls"},
      {"measurement": "Cleavage of total RNA", "setting": "[6]", "result": "Complete cleavage"},
      {"measurement": "Damage of cellular DNA and viral antigens after incubation", "setting": "[7]", "result": "neither cellular DNA nor viral antigens were damaged"},
      {"measurement": "Cytotoxic concentration CC50", "setting": "L41 [8]", "result": "21.2 (4.32 Ag+) μg/mL"},
      {"measurement": "Cytotoxic concentration CC50", "setting": "HT-29 [9]", "result": "15.9 (3.24 Ag+) μg/mL"}
    ]},
    {"molecule": "O=[N+]([O-])[O-].[Ag+]", "note": "[AgNO3]", "values": [
      {"measurement": "Toxicity for three human cell lines", "setting": "[1]; silver ions at 10 μg/mL", "result": "not toxic"},
      {"measurement": "Time for complete cleavage of isolated MS2 RNA", "setting": "MS2 RNA", "result": 15, "unit": "min"},
      {"measurement": "Incubation required for complete damage of RNA inside the MS2 phage", "setting": "MS2 Phage; 37 °C (data not shown)", "result": "at least 1 h"},
      {"measurement": "Incubation necessary for exhaustive hydrolysis of SARS-CoV-2 RNA", "setting": "SARS-CoV-2 RNA", "result": 1, "unit": "h"},
      {"measurement": "ΔCt = Ct (sample) − Ct (control), SARS-CoV-2 RNA", "setting": "SARS-CoV-2 RNA; RT^2-PCR", "result": 0.9},
      {"measurement": "IFNγ, ratio of MFI to control intact cells", "setting": "IFNγ", "result": 1.03},
      {"measurement": "TNFα, ratio of MFI to control intact cells", "setting": "TNFα", "result": "1.15 ↑"},
      {"measurement": "IL1β production", "setting": "IL-1β", "result": "up to 0.08 pg/mL"},
      {"measurement": "IL-12(p70), ratio of MFI to control intact cells", "setting": "IL-12(p70)", "result": 0.70},
      {"measurement": "IL-2, ratio of MFI to control intact cells", "setting": "IL-2", "result": 0.74},
      {"measurement": "IL-4, ratio of MFI to control intact cells", "setting": "IL-4", "result": 0.84},
      {"measurement": "IL-5, ratio of MFI to control intact cells", "setting": "IL-5", "result": 0.88},
      {"measurement": "IL-6, ratio of MFI to control intact cells", "setting": "IL-6", "result": 0.85},
      {"measurement": "IL-7, ratio of MFI to control intact cells", "setting": "IL-7", "result": 0.70},
      {"measurement": "IL-8, ratio of MFI to control intact cells", "setting": "IL-8", "result": "3.71 ↑"},
      {"measurement": "IL-10, ratio of MFI to control intact cells", "setting": "IL-10", "result": 0.78},
      {"measurement": "IL-13, ratio of MFI to control intact cells", "setting": "IL-13", "result": 0.81},
      {"measurement": "IL-17A, ratio of MFI to control intact cells", "setting": "IL-17A", "result": 0.97},
      {"measurement": "G-CSF, ratio of MFI to control intact cells", "setting": "G-CSF", "result": "1.12 ↑"},
      {"measurement": "GM-CSF, ratio of MFI to control intact cells", "setting": "GM-CSF", "result": 0.92},
      {"measurement": "MCP-1 (MCAP), ratio of MFI to control intact cells", "setting": "MCP-1 (MCAP)", "result": "1.19 ↑"},
      {"measurement": "MIP-1β, ratio of MFI to control intact cells", "setting": "MIP-1β", "result": "1.17 ↑"},
      {"measurement": "CC50, corresponding concentration of Ag+", "setting": "L41 [10]", "result": "100 (63.49 Ag+) μg/mL"},
      {"measurement": "CC50, corresponding concentration of Ag+", "setting": "HT-29 [11]", "result": "100 (63.49 Ag+) μg/mL"},
      {"measurement": "Effect on binding of antigen N with polyclonal antibodies (ELISA)", "setting": "[5]", "result": "inhibit binding"},
      {"measurement": "Lowest concentration for significant reproducible binding suppression", "setting": "[5]", "result": 100, "unit": "µg/mL"},
      {"measurement": "Effect on binding of antigen S2 with polyclonal antibodies (ELISA)", "setting": "[12]", "result": "inhibit binding"},
      {"measurement": "Lowest concentration for significant reproducible binding suppression", "setting": "[12]; ELISA, antigen S2 with human polyclonal antibodies", "result": 100, "unit": "µg/mL"},
      {"measurement": "Cytotoxic concentration CC50", "setting": "L41 [8]", "result": "100 (63.49 Ag+) μg/mL"},
      {"measurement": "Cytotoxic concentration CC50", "setting": "HEp-2", "result": "50 (31.75 Ag+) * μg/mL"},
      {"measurement": "Cytotoxic concentration CC50", "setting": "HT-29 [9]", "result": "100 (63.49 Ag+) μg/mL"}
    ]}
  ]
}
